Measurements published in patent US7939563B2, “Remedy for hypertension” (Kao Corporation, priority 2001, dated 2011).

Assays:
[1] = tested on: spontaneously hypertensive male rats (SHR); experiment: Measurement of an antihypertensive effect: oral administration, systolic blood pressure of the caudal artery; assay type: in vivo, rat; conditions: 50 mg/Kg oral
Description: After each of 15 week-old, spontaneously hypertensive male rats (“SHR”) was accustomed to sphygmomanometric operation by preliminarily measuring its blood pressure for 7 successive days using a commercially available noninvasive sphygmomanometer for rats (manufactured by Softlon Co., Ltd.), the evaluation test was started. The rats were all bred under conditions (in a breeding room in a rat region) at a room temperature of 25±1° C., humidity of 55±10% RH and illumination for 12 hours (from 7:00 am to 7:00 pm).
In the test plot (Comparative Example), a solution of ferulic acid (50 mg/kg as a dose) in physiological saline was employed. In Test plot 2, Test plot 3, Test plot 4, Test plot 5 and Test plot 6, a solution of chlorogenic acid (50 mg/kg as a dosage) in physiological saline, oryzanol (50 mg/kg as a dosage), curcumin (50 mg/kg as a dosage), phenylethyl caffeate (50 mg/kg as a dosage) and rosmarinic acid (50 mg/kg as a dosage) were used, respectively. In each test plot, physiological saline was employed as a control. Each of the samples was orally administered.
SHRs were fasted overnight and divided into groups, each consisting of 5 rats. Systolic blood pressures of the caudal artery were measured prior to administration, and several times during 30 minutes to 24 hours after administration
The test results thus obtained were expressed by the mean value (%) and […] (SE) of the changing ratio (%) in systolic blood pressure.
A lowering ratio of the systolic blood pressure measured during 30 minutes to 24 hours each after administration relative to the systolic blood pressure prior to administration is shown in Table 1.

[2] = Blood levels of chlorogenic acid, caffeic acid and ferulic acid after oral chlorogenic acid in SHR; assay type: in vivo, rat; parameters: unit not given here; conditions: 200 mg/kg chlorogenic acid oral once
Description: To the SHR, 200 mg/kg of chlorogenic acid was orally administered once.
SHRs were fasted overnight and then divided into groups, each consisting of 5 rats.

[3] = tested on: spontaneously hypertensive male rats (SHR); experiment: Identification of an antihypertensive component: intravenous administration, systolic blood pressure of the carotid artery; assay type: in vivo, rat; conditions: anesthetized 15 week-old SHR, 5 μg mol/kg in physiological saline, intravenous via femoral vein catheter
Description: Its electrocardiograph was recorded by an electrocardiogram. A sample was injected to the femoral vein through a catheter. After the rats were accustomed sufficiently to the sphygmomanometric operation, the evaluation test was started. The rats were all bred under conditions (in a breeding room in a rat region) at a room temperature of 25±1° C., humidity of 55±10% RH and illumination for 12 hours (from 7:00 am to 7:00 pm). In the control plot, physiological saline was employed. […] Through a catheter, the sample was intravenously administered and while administration, systolic blood pressures of the carotid artery were measured with the passage of time.

[4] = Blood levels after 6 weeks of a beverage mixture containing an extract of raw coffee beans, liquid chromatography; assay type: in vivo; conditions: human, plasma, oral; read-out: blood level 24 hours after administration of chlorogenic acid
Description: The blood levels of chlorogenic acid, caffeic acid and ferulic acid were measured using liquid chromatography.

[5] = Blood level time course of ferulic acid after administration; assay type: in vivo
[6] = time 0 (prior to administration)

blood level after the administration of chlorogenic acid [2, 6]	blood level after the administration of chlorogenic acid ([2]; time 3)	blood level after the administration of chlorogenic acid ([2]; time 6)	blood level after the administration of chlorogenic acid ([2]; time 9)	blood level after the administration of chlorogenic acid ([2]; time 12)	blood level after the administration of chlorogenic acid ([2]; time 24)	Molecule	changing ratio in systolic blood pressure (mean) [1, 6] [%]	changing ratio in systolic blood pressure (mean) ([1]; time 6 after administration) [%]	changing ratio in systolic blood pressure (mean) ([1]; time 12 after administration) [%]	changing ratio in systolic blood pressure (mean) ([1]; time 24 after administration) [%]	fluctuation in systolic blood pressure of the carotid artery [3]	other results
–	–	–	–	–	–	COc1cc(/C=C/C(=O)CC(=O)/C=C/c2ccc(O)c(OC)c2)ccc1O [curcumin]	0	−15.2	−3.5	−5.3	–	–
–	–	–	–	–	–	oryzanol	0	–	–	–	–	changing ratio in systolic blood pressure (mean) ([1]; time 1 after administration): −15.2%; changing ratio in systolic blood pressure (mean) ([1]; time 2 after administration): −12.8%; changing ratio in systolic blood pressure (mean) ([1]; time 4 after administration): −13.8%
–	–	–	–	–	–	O=C(/C=C/c1ccc(O)c(O)c1)O[C@H]1[C@H](O)C[C@](O)(C(=O)O)C[C@H]1O [4-chlorogenic acid, 4-caffeoylquinic acid]	0	−8.5	−9.1	−11.0	–	–
0	0	0	0	0	0	O=C(/C=C/c1ccc(O)c(O)c1)O[C@@H]1C[C@](O)(C(=O)O)C[C@@H](O)[C@H]1O [5-chlorogenic acid, 5-caffeoylquinic acid]	–	–	–	–	–	–
–	–	–	–	–	–	O=C(/C=C/c1ccc(O)c(O)c1)OCCc1ccccc1 [phenylethyl caffeic acid, phenylethyl caffeate]	0	−13.7	−1.3	−0.7	–	–
–	–	–	–	–	–	O=C(O)[C@]1(O)C[C@@H](O)[C@@H](O)[C@H](O)C1 [quinic acid]	–	–	–	–	Fluctuations in the blood pressure was not recognized	–
–	–	–	–	–	–	O=C(/C=C/c1ccc(O)c(O)c1)O[C@H](Cc1ccc(O)c(O)c1)C(=O)O [rosemaric acid, rosmarinic acid]	0	−6.4	0.9	2.2	–	–
0	0.07	0.179	0.166	0.05	0	O=C(O)/C=C/c1ccc(O)c(O)c1 [caffeic acid]	–	–	–	–	Fluctuations in the blood pressure was not recognized	concentration at 24 h [4]: 95.4 ng/mL
0	0.074	0.154	0.174	0.145	0	COc1cc(/C=C/C(=O)O)ccc1O [ferulic acid]	0	−3.2	–	–	lowering in the blood pressure was recognized	time after which metabolism and excretion are completed [5]: about 4 hours; time at which the blood level reaches the maximum [5]: about 2 hours; changing ratio in systolic blood pressure (mean) ([1]; time 0.5 after administration): −9.5%; changing ratio in systolic blood pressure (mean) ([1]; time 1 after administration): −10.3%; changing ratio in systolic blood pressure (mean) ([1]; time 2 after administration): −6.8%; changing ratio in systolic blood pressure (mean) ([1]; time 4 after administration): −7.9%; concentration at 24 h [4]: 104 ng/mL
